Legend:
Details in all cases: 72 h
[1] = tested on: HepG2; experiment: drug sensitivity score (DSS) for viability; higher = more toxic; extreme values may be limits of the assay
[2] = tested on: Caco-2; experiment: as above
[3] = tested on: U2OS; experiment: as above
[4] = tested on: Calu-3; experiment: as above
[5] = tested on: Vero E6; experiment: as above
[6] = tested on: HepG2; experiment: cell viability relative to DMSO; higher = less toxic
[7] = tested on: Caco-2; experiment: as above
[8] = tested on: U2OS; experiment: as above
[9] = tested on: Calu-3; experiment: as above
[10] = tested on: Vero E6; experiment: as above
[11] = tested on: HepG2; experiment: relative viability EC50 (midpoint between 100% and the lowest measured viability); higher = less toxic
[12] = tested on: Caco-2; experiment: as above
[13] = tested on: U2OS; experiment: as above
[14] = tested on: Calu-3; experiment: as above
[15] = tested on: Vero E6; experiment: as above

| SMILES | drug sensitivity score [1] | drug sensitivity score [2] | drug sensitivity score [3] | drug sensitivity score [4] | drug sensitivity score [5] | cell viability ([6]; 1 nM) [%] | cell viability ([6]; 10 nM) [%] | cell viability ([6]; 100 nM) [%] | cell viability ([6]; 1000 nM) [%] | cell viability ([6]; 10000 nM) [%] | cell viability ([7]; 1 nM) [%] | cell viability ([7]; 10 nM) [%] | cell viability ([7]; 100 nM) [%] | cell viability ([7]; 1000 nM) [%] | cell viability ([7]; 10000 nM) [%] | cell viability ([8]; 1 nM) [%] | cell viability ([8]; 10 nM) [%] | cell viability ([8]; 100 nM) [%] | cell viability ([8]; 1000 nM) [%] | cell viability ([8]; 10000 nM) [%] | cell viability ([9]; 1 nM) [%] | cell viability ([9]; 10 nM) [%] | cell viability ([9]; 100 nM) [%] | cell viability ([9]; 1000 nM) [%] | cell viability ([9]; 10000 nM) [%] | cell viability ([10]; 1 nM) [%] | cell viability ([10]; 10 nM) [%] | cell viability ([10]; 100 nM) [%] | cell viability ([10]; 1000 nM) [%] | cell viability ([10]; 10000 nM) [%] | relative viability EC50 [11] [µM] | relative viability EC50 [12] [µM] | relative viability EC50 [13] [µM] | relative viability EC50 [14] [µM] | relative viability EC50 [15] [µM] |
| --- | --- | --- | --- | --- | --- | --- | --- | --- | --- | --- | --- | --- | --- | --- | --- | --- | --- | --- | --- | --- | --- | --- | --- | --- | --- | --- | --- | --- | --- | --- | --- | --- | --- | --- | --- |
| CNCCc1ccc(O)c(O)c1 [deoxyepinephrine] | 0 | 0 | 0 | 0 | 0 | 97.5 | 97.2 | 108 | 91.8 | 96.7 | 95.5 | 95.8 | 106 | 102 | 89.6 | 95 | 97 | 94.3 | 101 | 95.5 | 94.5 | 104 | 95.8 | 91.6 | 98.1 | 107 | 99.6 | 100 | 101 | 103 | > 10 | > 10 | > 10 | > 10 | > 10 |
| CNCCCN1c2ccccc2CCc2ccccc21 [desipramine] | 0 | 0 | 0 | 0 | 0 | 119 | 114 | 105 | 113 | 89 | 98.9 | 111 | 102 | 94.3 | 90.6 | 104 | 102 | 104 | 98.1 | 97.1 | 104 | 101 | 104 | 109 | 96.2 | 107 | 103 | 97 | 102 | 99.9 | > 10 | > 10 | > 10 | > 10 | > 10 |
| C[C@]12CC[C@H]3[C@@H](CCC4=CC(=O)CC[C@@]43C)[C@@H]1CC[C@@H]2C(=O)CO [desoxycortone] | 0 | 0.2 | 0 | 0 | 0 | 101 | 95.8 | 97 | 87.1 | 104 | 100 | 101 | 102 | 97 | 87.4 | 103 | 99.2 | 97.1 | 97.6 | 95.4 | 98.5 | 95.1 | 91.5 | 105 | 95.8 | 101 | 99.2 | 93.6 | 95.8 | 101 | > 10 | > 10 | > 10 | > 10 | > 10 |
| c1ccc2c(c1)CN1CCCC1=N2 [desoxypeganine] | 0 | 0 | 0 | 0 | 0 | 89.7 | 75.1 | 91.6 | 91.1 | 96.8 | 97.6 | 113 | 105 | 94.7 | 97.9 | 98.7 | 101 | 93 | 94.5 | 99.3 | 95.1 | 111 | 99.6 | 89.2 | 107 | 98.4 | 96.5 | 105 | 98 | 95.2 | > 10 | > 10 | > 10 | > 10 | > 10 |
| c1ccc2c(c1)sc1ccccc12 [dibenzothiophene] | 0 | 0 | 0 | 0 | 0 | 102 | 96.8 | 104 | 106 | 101 | 101 | 98.7 | 99.9 | 91.1 | 99.8 | 105 | 101 | 104 | 96.7 | 104 | 99.4 | 103 | 92.1 | 96.1 | 101 | 100 | 96.6 | 99 | 98.5 | 98.8 | > 10 | > 10 | > 10 | > 10 | > 10 |
| CN1CCN(c2cc3c(cc2F)c(=O)c(C(=O)O)cn3-c2ccc(F)cc2)CC1 [difloxacin] | 0 | 0 | 0 | 0 | 0 | 93.6 | 110 | 105 | 103 | 93.7 | 92.5 | 95.1 | 102 | 94.7 | 91.1 | 92 | 95.4 | 98.9 | 99.1 | 104 | 105 | 90.1 | 95.2 | 98.6 | 108 | 109 | 101 | 96.7 | 106 | 99.1 | > 10 | > 10 | > 10 | > 10 | > 10 |
| O=C(O)CCc1cc(I)c(Oc2ccc(O)cc2)c(I)c1 [diiodothyropropionic-acid] | 0 | 0 | 0 | 0 | 0.7 | 104 | 95 | 113 | 103 | 99.8 | 113 | 124 | 94.4 | 113 | 109 | 96.2 | 99.1 | 95.8 | 98.4 | 96.6 | 96.8 | 101 | 94.5 | 99.6 | 93.6 | 105 | 103 | 104 | 87.1 | 92.1 | > 10 | > 10 | > 10 | > 10 | > 10 |
| CCCCC[C@H](O)/C=C/[C@H]1[C@H](O)CC(=O)[C@@H]1C/C=C\CCCC(=O)O [dinoprostone] | 0 | 0 | 0 | 0 | 0 | 99.8 | 104 | 90.4 | 103 | 99 | 101 | 104 | 101 | 102 | 95.2 | 101 | 98.2 | 102 | 98.5 | 98.3 | 96.3 | 90 | 90.2 | 94 | 94.8 | 101 | 107 | 101 | 103 | 94.9 | > 10 | > 10 | > 10 | > 10 | > 10 |
| C[C@H](N)C(=O)N[C@@H](CCC(N)=O)C(=O)O [dipeptamin] | 0 | 0 | 0 | 0 | 0 | 104 | 93.2 | 95.5 | 100 | 96.1 | 97.4 | 104 | 96.5 | 95.2 | 110 | 95.9 | 106 | 98.6 | 103 | 98.9 | 101 | 98.9 | 94.7 | 95.1 | 103 | 99.5 | 98.1 | 94.1 | 98 | 95.4 | > 10 | > 10 | > 10 | > 10 | > 10 |
| CC(C)N(CCC(C(N)=O)(c1ccccc1)c1ccccn1)C(C)C (stereo not given) [disopyramide] | 0 | 0 | 0 | 0 | 0 | 105 | 86.8 | 94.7 | 91.9 | 99.4 | 94.4 | 104 | 101 | 102 | 91.8 | 103 | 102 | 100 | 99.7 | 95.7 | 101 | 93.2 | 96.3 | 96.9 | 89.7 | 102 | 101 | 96 | 97.7 | 97.5 | > 10 | > 10 | > 10 | > 10 | > 10 |
| CCc1ccc(C(=O)C(C)CN2CCCCC2)cc1 (stereo not given) [eperisone] | 0 | 0 | 0 | 0 | 0 | 107 | 95.5 | 95.8 | 95.4 | 100 | 98.6 | 106 | 91.7 | 102 | 98.5 | 93.6 | 102 | 96.2 | 99.9 | 94.9 | 103 | 93.7 | 87.5 | 101 | 88.8 | 105 | 99.7 | 106 | 103 | 105 | > 10 | > 10 | > 10 | > 10 | > 10 |
| NC1=NCC2c3ccccc3Cc3ccccc3N12 (stereo not given) [epinastine] | 0 | 0 | 0 | 0 | 0 | 97.3 | 102 | 105 | 99.1 | 102 | 91.6 | 87.4 | 95 | 98.9 | 93.3 | 97 | 102 | 91.7 | 92.8 | 98.6 | 99.3 | 103 | 98.2 | 98 | 92 | 98.6 | 105 | 99.7 | 96 | 99.5 | > 10 | > 10 | > 10 | > 10 | > 10 |
| C[C@]12CC[C@@H]3c4ccc(O)cc4CC[C@H]3[C@@H]1C[C@@H](O)[C@@H]2O [estriol] | 0 | 0 | 0 | 0 | 0 | 106 | 103 | 96.8 | 90.4 | 96.1 | 97.5 | 96.3 | 101 | 105 | 105 | 99.3 | 97.4 | 101 | 101 | 102 | 94.5 | 96.5 | 95.6 | 93.7 | 103 | 96 | 99.1 | 96.5 | 89.2 | 105 | > 10 | > 10 | > 10 | > 10 | > 10 |
| C#C[C@]1(O)CC[C@H]2[C@@H]3CCC4=CC(=O)CC[C@]4(C)[C@H]3CC[C@@]21C [ethisterone] | 0 | 0 | 0 | 0 | 0 | 109 | 102 | 97.9 | 95.1 | 97.6 | 89.4 | 103 | 89.4 | 91.1 | 97.5 | 97.3 | 103 | 94.6 | 96.4 | 102 | 95.7 | 95.9 | 103 | 103 | 102 | 106 | 102 | 105 | 101 | 95.6 | > 10 | > 10 | > 10 | > 10 | > 10 |

Source: the supplement of paper PMC13380429
